Literature values in patent publication US6572638B1, “Method of controlling body temperature while inhibiting thermoregulatory responses” (Radiant Medical, Inc., priority 1999, dated 2003).

System: shivering threshold
Conditions: patients at normal temperature warmed until sweating then cooled until shivering occurred; Talke, et al., Anesthesiology 87(4):835-841, 1997

Clc1cccc(Cl)c1N=C1NCCN1 [clonidine]
effect on shivering threshold: able to lower the shivering threshold

Cc1cccc([C@H](C)c2cnc[nH]2)c1C [dexmedetomidine]
effect on shivering threshold: able to lower the shivering threshold
